Data published in patent US11071726B2, “Treating gastric cancer using combination therapies comprising liposomal irinotecan, oxaliplatin, 5-fluorouracil (and leucovorin)” (Ipsen Biopharm Ltd., priority 2016, dated 2021).
Like-named read-outs stand apart in the source and are kept apart here. Each block holds one compound with its values, some of them ahead of it.

Experiments:
[1] = human, in vivo
[2] = single-agent irinotecan 350 mg/m^2 once every-3-weeks, cited from earlier work
[3] = cited from earlier work
Topoisomerase I = target: T1, Topoisomerase I (Homo sapiens, UniProt P11387); details: metabolite formed by nonspecific carboxylesterases; cited from earlier work
T1 sequence (P11387 1-765): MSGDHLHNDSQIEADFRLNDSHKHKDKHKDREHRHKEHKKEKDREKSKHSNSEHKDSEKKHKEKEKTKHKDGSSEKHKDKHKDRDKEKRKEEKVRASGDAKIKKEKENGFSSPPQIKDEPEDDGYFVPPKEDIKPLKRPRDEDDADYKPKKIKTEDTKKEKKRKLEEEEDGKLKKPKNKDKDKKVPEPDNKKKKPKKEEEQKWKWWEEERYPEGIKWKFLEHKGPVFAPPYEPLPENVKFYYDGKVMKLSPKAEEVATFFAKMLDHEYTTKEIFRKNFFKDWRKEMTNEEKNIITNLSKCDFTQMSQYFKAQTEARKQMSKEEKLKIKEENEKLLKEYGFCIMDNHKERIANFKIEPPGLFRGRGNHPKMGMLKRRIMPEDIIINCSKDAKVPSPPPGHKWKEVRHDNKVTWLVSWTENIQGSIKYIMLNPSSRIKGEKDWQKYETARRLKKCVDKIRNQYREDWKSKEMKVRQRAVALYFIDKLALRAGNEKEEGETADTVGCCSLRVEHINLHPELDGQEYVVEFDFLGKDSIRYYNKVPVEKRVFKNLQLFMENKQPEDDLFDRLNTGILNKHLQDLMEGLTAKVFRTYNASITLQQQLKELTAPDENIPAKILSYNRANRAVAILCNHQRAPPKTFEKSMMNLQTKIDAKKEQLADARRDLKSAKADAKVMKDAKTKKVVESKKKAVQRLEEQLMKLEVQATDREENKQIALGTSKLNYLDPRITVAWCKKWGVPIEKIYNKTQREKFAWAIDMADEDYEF

consecutive doses of dose level 1 received by any patient [1]: ≤ 2
patients administered dose level 1 on day 15 of cycle 1 [1]: 3
patients administered dose level −1 on days 1 and 15 of cycle 1 [1]: 6
Compound: irinotecan sucrose octasulfate salt liposome injection [MM-398]

Compound: CCc1c2c(nc3ccc(OC(=O)N4CCC(N5CCCCC5)CC4)cc13)-c1cc3c(c(=O)n1C2)COC(=O)[C@]3(O)CC [irinotecan, (S)-4,11-diethyl-3,4,12,14-tetrahydro-4-hydroxy-3,14-dioxo1H-pyrano[3′,4′:6,7]-indolizino[1,2-b]quinolin-9-yl-[1,4′bipiperidine]-1′-carboxylate]
incidence of grade 4 neutropenia ([2]; patients heterozygous (UGT1A1 6/7 genotype)): 12.5%
incidence of grade 4 neutropenia ([2]; patients homozygous for the UGT1A1*28 allele): ≤ 50%
grade 4 neutropenia ([2]; patients homozygous for the wild-type allele (UGT1A1 6/6 genotype)): no grade 4 neutropenia was observed

Compound: FOLFIRINOX
incidence of most common Grade 3-4 adverse events (neutropenia, fatigue, vomiting, diarrhea, thrombocytopenia, sensory neuropathy, anemia, elevated ALT, thromboembolism, febrile neutropenia) ([3]; Phase 3 study of the FOLFIRINOX combination): ≥ 5%
toxicity ([3]; first-line treatment): significant toxicity

Compound: CCc1c2c(nc3ccc(O)cc13)-c1cc3c(c(=O)n1C2)COC(=O)[C@]3(O)CC [SN-38]
activity relative to irinotecan (Topoisomerase I): 100-1000 fold
